What was measured:
human PDHK1 (hPDHK1) = human PDHK1 (hPDHK1) (Homo sapiens (Human), UniProt Q15118); assay: Inhibitory action of PDHK1 activity in vitro (residual PDH activity after PDHK reaction); type: biochemical; settings: for IC50: PDH/hPDHK1 complex solution, PDHK reaction at room temperature for 45 min, NADH absorbance at 340 nm, read-out: hPDK1 IC50; for inhibition at 0.003 µM: at 3 nmol/L, shown when IC50 value could not be calculated, read-out: hPDHK1 inhibitory rate at the lowest concentration of the test compound
human PDHK1 (hPDHK1), sequence (Q15118 29-436): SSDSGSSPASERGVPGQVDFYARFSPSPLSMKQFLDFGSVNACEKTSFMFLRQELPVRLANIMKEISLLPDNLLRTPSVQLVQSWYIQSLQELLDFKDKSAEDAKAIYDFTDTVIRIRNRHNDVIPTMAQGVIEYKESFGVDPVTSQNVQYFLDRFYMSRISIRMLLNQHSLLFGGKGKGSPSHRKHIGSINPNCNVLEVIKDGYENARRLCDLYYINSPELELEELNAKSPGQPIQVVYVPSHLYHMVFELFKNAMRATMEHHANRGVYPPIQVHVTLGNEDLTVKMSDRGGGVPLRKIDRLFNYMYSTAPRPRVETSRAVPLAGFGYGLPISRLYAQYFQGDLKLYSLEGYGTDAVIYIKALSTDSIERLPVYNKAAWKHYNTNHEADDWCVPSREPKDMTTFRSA
Experimental: (§1) The inhibitory action of PDHK activity was assessed indirectly by measuring the residual PDH activity after PDHK reaction in the presence of a test compound.
(Inhibitory Action of PDHK1 Activity)
In the case of human PDHK1 (hPDHK1, NCBI Reference Database Accession number NM_002610.3), a 1.3 kbp fragment encoding this protein was isolated from human liver cDNA by polymerase chain reaction (PCR). Modified hPDHK1 cDNA wherein FLAG-Tag sequence was added to the N terminus was prepared by PCR and ligated to the NdeI/EcoRI site of pET-17b vector (Merck MGaA, model number 69663-3). The recombinant construct was transformed into Escherichia coli DH5a (TOYOBO, model number DNA-903). The recombinant clones were identified, and plasmid DNA was isolated and subjected to the DNA sequence analysis. One clone which had the expected nucleic acid sequence was selected for expression work.
For expression of hPDHK1 activity, Escherichia coli strain BL21(DE3) cells (Merck KGaA, model number 69450-4) were transformed with the pET17b vector containing modified hPDHK1 cDNA. The Escherichia coli were grown to an optical density 0.6 ([…]) at 30° C. Protein expression was induced by the addition of 500 μmol/L isopropyl-β-thiogalactopyranoside. The Escherichia coli were cultured at 20° C. for 17-18 hr and harvested by centrifugation.
The harvested Escherichia coli was resuspended in a suspension buffer (20 mmol/L N-(2-hydroxyethyl)piperazine-N′-2-ethanesulfonic acid-sodium hydroxide (HEPES-NaOH), 500 mmol/L sodium chloride, 1% ethylene glycol, and 0.1% polyoxyethylene-polyoxypropylene block copolymer (Pluronic F-68), complete, EDTA-free (pH 8.0)) and disrupted by a microfluidizer M-110H (MIZUHO INDUSTRIAL CO., LTD.) or ultrasonication. The precipitate was removed by centrifugation and the supernatant was added to DDDDK-tagged Protein PURIFICATION GEL (MBL, model number 3329). DDDDK-tagged Protein PURIFICATION GEL was washed with a washing buffer (20 mmol/L HEPES-NaOH, 500 mmol/L sodium chloride, 1% ethylene glycol, 0.1% pluronic F-68 (pH 8.0)) and the bound protein was eluted with elution buffer 1 (20 mmol/L HEPES-NaOH, 100 μg/mL peptide (amino acid sequence DYKDDDDK) (SEQ ID NO: 1), 500 mmol/L sodium chloride, 1% ethylene glycol, 0.1% pluronic F-68 (pH 8.0)).
The eluted fractions containing FLAG-Tagged protein were pooled, concentrated by an ultrafiltration method, added to a gel filtration column (HiLoad 26/60 Superdex 200 (GE Healthcare, model number 17-1070-01)), and eluted with elution buffer 2 (20 mmol/L HEPES-NaOH, 150 mmol/L sodium chloride, 0.5 mmol/L ethylenediaminetetraacetic acid (EDTA), 1% ethylene glycol, 0.1% pluronic F-68 (pH 8.0)). The eluted fractions were pooled and preserved at −80° C.
(§2) 0.025 U/mL PDH (porcine heart PDH complex, Sigma P7032) and 0.5 μg/mL hPDHK1 were mixed in an assay buffer (50 mmol/L 3-morpholinopropanesulfonic acid (pH 7.0), 20 mmol/L dipotassium hydrogen phosphate, 60 mmol/L potassium chloride, 2 mmol/L magnesium chloride, 0.4 mmol/L EDTA, 0.2% poloxamer, 2 mmol/L dithiothreitol), and the mixture was incubated at 4° C. overnight to obtain a PDH/hPDHK1 complex solution. In the assay buffer, 0.025 U/mL PDH was mixed and incubated at 4° C. overnight to prepare a PDH solution.
The test compounds were diluted with dimethyl sulfoxide (DMSO). To measure an inhibitory action of the test compound on the PDHK activity in the PDH/hPDHK1 complex solution, PDH/hPDHK1 complex solution (20 μL), test compound (1.5 μL) and 0.353 μmol/L ATP (diluted with assay buffer) (8.5 μL) were added to a 384 well microplate (Greiner Bio-One 781801) and PDHK reaction was performed at room temperature for 45 min (test compound well). DMSO (1.5 μL) was added to control wells instead of test compound. In addition, DMSO (1.5 μL) was added to blank wells instead of the test compound, and PDH solution was added instead of the PDH/hPDHK1 complex solution. […]

human PDHK2 (hPDHK2) = human PDHK2 (hPDHK2) (Homo sapiens (Human), UniProt Q15119); assay: Inhibitory action of PDHK2 activity in vitro (residual PDH activity after PDHK reaction); type: biochemical; settings: for IC50: PDH/hPDHK2 complex solution, PDHK reaction at room temperature for 45 min, NADH absorbance at 340 nm, read-out: kPDK2 IC50
Experimental: as §1
(Inhibitory Action of PDHK2 Activity)
In the case of human PDHK2 (hPDHK2, NCBI Reference Database Accession number NM_002611.4), modified hPDHK2 cDNA wherein FLAG-Tag sequence was added to the N terminus of hPDHK2 cDNA clone (pReceiver-M01/PDK2-GeneCopoeia) as the base was prepared by PCR and ligated to the NdeI/EcoRI site of pET-17b vector. The recombinant construct was transformed into Escherichia coli DH5a. The recombinant clones were identified, and plasmid DNA was isolated and subjected to the DNA sequence analysis. One clone which had the expected nucleic acid sequence was selected for expression work.
For expression of hPDHK2 activity, Escherichia coli strain BL21(DE3) cells were transformed with the pET17b vector containing modified hPDHK2 cDNA. The Escherichia coli were grown to an optical density 0.6 ([…]) at 30° C. Protein expression was induced by the addition of 500 μmol/L isopropyl-β-thiogalactopyranoside. The Escherichia coli were cultured at 20° C. for 17-18 hr and harvested by centrifugation. The harvested Escherichia coli was resuspended in a suspension buffer (20 mmol/L HEPES-NaOH, 500 mmol/L sodium chloride, 1% ethylene glycol, 0.1% pluronic F-68 (pH 8.0), cOmplete, EDTA-free (pH 8.0)), and disrupted by a microfluidizer. The precipitate was removed by centrifugation and the supernatant was added to DDDDK-tagged Protein PURIFICATION GEL. DDDDK-tagged Protein PURIFICATION GEL was washed with a washing buffer (20 mmol/L HEPES-NaOH, 500 mmol/L sodium chloride, 1% ethylene glycol, 0.1% pluronic F-68 (pH 8.0)) and the bound protein was eluted with elution buffer 1 (20 mmol/L HEPES-NaOH, 100 μg/mL peptide (amino acid sequence DYKDDDDK) (SEQ ID NO: 1), 500 mmol/L sodium chloride, 1% ethylene glycol, 0.1% pluronic F-68 (pH 8.0)). The eluted fractions containing FLAG-Tagged protein were pooled, concentrated by an ultrafiltration method, added to a gel filtration column (HiLoad 26/60 Superdex 200), and eluted with elution buffer 2 (20 mmol/L HEPES-NaOH, 150 mmol/L sodium chloride, 0.5 mmol/L ethylenediaminetetraacetic acid (EDTA), 1% ethylene glycol, 0.1% pluronic F-68 (pH 8.0)). The eluted fractions were pooled and preserved at −80° C.
as §2, with “PDH” for “PDH (porcine heart PDH complex, Sigma P7032)”, “hPDHK2” for “hPDHK1”, “PDH/hPDHK2” for “PDH/hPDHK1”
The test compounds were diluted with DMSO. To measure an inhibitory action of the test compound on the PDHK activity in the PDH/hPDHK2 complex solution, PDH/hPDHK2 complex solution (20 μL), test compound (1.5 μL) and 1.06 μmol/L ATP (diluted with assay buffer) (8.5 μL) were added to a 384 well microplate and PDHK reaction was performed at room temperature for 45 min (test compound well). DMSO (1.5 μL) was added to control wells instead of test compound. In addition, DMSO (1.5 μL) was added to blank wells instead of the test compound, and PDH solution was added instead of the PDH/hPDHK2 complex solution. To measure an inhibitory action of the test compound on the PDHK activity inherent in the PDH solution, a test compound was added and the PDH solution instead of the PDH/hPDHK2 complex solution was added to a blank+test compound well.
Then, 10 μL of substrates (5 mmol/L sodium pyruvate, 5 mmol/L Coenzyme A, 12 mmol/L NAD, 5 mmol/L thiamine pyrophosphate, diluted with assay buffer) were added. The mixture was incubated at room temperature for 90 min, and the residual PDH activity was measured. […]

| IC50 (human PDHK1 (hPDHK1)) [nM] | IC50 (human PDHK2 (hPDHK2)) [nM] | inhibition at 0.003 µM (human PDHK1 (hPDHK1)) [%] | hPDHK2 inhibitory rate at the lowest concentration of the test compound (human PDHK2 (hPDHK2); lowest concentration of the test compound in the assay (<3 nmol/L), shown when IC50 value could not be calculated) [%] | SMILES |
| --- | --- | --- | --- | --- |
| 6 | 5 |  |  | C[C@H]1CN(C(=O)c2c3cc(F)ccc3nn2C)Cc2cnc([C@@](C)(O)C(F)(F)F)n21 [Example 1] |
| 12 | 15 |  |  | C[C@H]1CN(C(=O)c2nc3ccc(F)cc3o2)Cc2cnc([C@@](C)(O)C(F)(F)F)n21 [Example 2] |
| 16 | 14 |  |  | C[C@H]1CN(C(=O)C2Cc3ccccc3C2)Cc2cnc([C@@](C)(O)C(F)(F)F)n21 [Example 3, (2,3-dihydro-1H-inden-2-yl)((S)-5-methyl-3-((R)-1,1,1-trifluoro-2-hydroxypropan-2-yl)-5,6-dihydroimidazo[1,5-a]pyrazin-7(8H)-yl)methanone] |
| 4 | 5 |  |  | C[C@H]1CN(C(=O)c2c3ccc(C#N)cc3nn2C)Cc2cnc([C@@](C)(O)C(F)(F)F)n21 [Example 4, 2-methyl-3-((S)-5-methyl-3-((R)-1,1,1-trifluoro-2-hydroxypropan-2-yl)-5,6,7,8-tetrahydroimidazo[1,5-a]pyrazine-7-carbonyl)-2H-indazole-6-carbonitrile] |
| < 3 | 5 | 55 |  | C[C@H]1CN(C(=O)c2nn(C)c3cc(C#N)ccc23)Cc2cnc([C@@](C)(O)C(F)(F)F)n21 [Example 5, 1-methyl-3-((S)-5-methyl-3-((R)-1,1,1-trifluoro-2-hydroxypropan-2-yl)-5,6,7,8-tetrahydroimidazo[1,5-a]pyrazine-7-carbonyl)-1H-indazole-6-carbonitrile] |
| 11 | 11 |  |  | C[C@H]1CN(C(=O)c2c3c(F)cc(F)cc3nn2C)Cc2cnc([C@@](C)(O)C(F)(F)F)n21 [Example 6] |
| 8 | 10 |  |  | C[C@H]1CN(C(=O)c2nn(C)c3cc(F)cc(F)c23)Cc2cnc([C@@](C)(O)C(F)(F)F)n21 [Example 7] |
| 49 | 34 |  |  | C[C@H]1CN(C(=O)c2cnc3ccc(F)cn23)Cc2cnc([C@@](C)(O)C(F)(F)F)n21 [Example 8] |
| 7 | 11 |  |  | C[C@H]1CN(C(=O)c2c3cc(F)c(F)cc3nn2C)Cc2cnc([C@@](C)(O)C(F)(F)F)n21 [Example 9, (5,6-difluoro-2-methyl-2H-indazol-3-yl) ((S)-5-methyl-3-((R)-1,1,1-trifluoro-2-hydroxypropan-2-yl)-5,6-dihydroimidazo[1,5-a]pyrazin-7(8H)-yl)methanone] |
| 9 | 13 |  |  | C[C@H]1CN(C(=O)c2nn(C)c3cc(F)c(F)cc23)Cc2cnc([C@@](C)(O)C(F)(F)F)n21 [Example 10, (5,6-difluoro-1-methyl-1H-indazol-3-yl)((S)-5-methyl-3-((R)-1,1,1-trifluoro-2-hydroxypropan-2-yl)-5,6-dihydroimidazo[1,5-a]pyrazin-7(8H)-yl)methanone] |
| 14 | 15 |  |  | C[C@H]1CN(C(=O)c2ccc3c(c2)OC(F)(F)O3)Cc2cnc([C@@](C)(O)C(F)(F)F)n21 [Example 11, (2,2-difluorobenzo[d][1,3]dioxol-5-yl)((S)-5-methyl-3-((R)-1,1,1-trifluoro-2-hydroxypropan-2-yl)-5,6-dihydroimidazo[1,5-a]pyrazin-7(8H)-yl)methanone] |
| 8 | 10 |  |  | C[C@H]1CN(C(=O)c2ccc3nn(C)cc3c2)Cc2cnc([C@@](C)(O)C(F)(F)F)n21 [Example 12] |
| 29 | 36 |  |  | C[C@H]1CN(C(=O)c2cc3ccccc3o2)Cc2cnc([C@@](C)(O)C(F)(F)F)n21 [Example 13] |
| < 3 | < 3 | 68 | 57 | C[C@H]1CN(C(=O)c2cc(C3CC3)nn2C)Cc2cnc([C@@](C)(O)C(F)(F)F)n21 [Example 14] |
| 3 | 5 |  |  | C[C@H]1CN(C(=O)c2cc(-c3ccccc3)nn2C)Cc2cnc([C@@](C)(O)C(F)(F)F)n21 [Example 15] |
